What all share (assay type): cell-based, Human
The subject of assay [1] is H1581 (FGFR1 amp). Put plainly: In vitro growth inhibition of H1581 tumor cells (MTT/CCK8). As to conditions: Homo sapiens, NCI-H1581; in vitro growth inhibition (or induction of apoptosis), cells cultured 3 to 5 days, MTT (CCK8); read-out: IC50 H1581 (FGFR1 amp). From the text: (§1) Tumor cell lines are an effective model for studying in vitro tumor growth inhibition. In the present invention, a representative tumor cell line was selected to determine the cell growth inhibition activity of the present compound. All cell lines used were from ATCC, DSMZ, and cell banks of the Chinese Academy of Sciences. Cell culture conditions and methods were in accordance with the requirements of each cell line. Cells were subcultured in vitro for no more than 3 generations each time, and as required, single-clone purification and identification of cell lines could be carried out.
(§2) The cell culture media used were RPMI1640 (Gibco), DMEM (Gibco), MEM (Gibco), L15 (Gibco), IMDM (Gibco), McCOY'S5A, and William's (Gibco). 5-20% fetal bovine serum (Gibco), 1% double antibiotic, 2 mM glutamine, or 1 mM sodium pyruvate were added. The names, species, major gene characteristics, culture media and cell sources of the cell lines used are shown in table 1, wherein “amp” refers to gene amplification. “+++” refers to gene overexpression. The main genetic characteristics of cells were obtained from the COSMIC Cell Lines Project and related research papers, respectively.
(§3) Adherent cells were digested with 0.25% trypsin-EDTA (Gibco). Suspension culture cells were collected by centrifugation (1700 rpm, 3 minutes). The supernatant was discarded and the cells were counted. According to each cell growth cycle, different concentrations of cells were prepared (5˜10×10^4 cells per ml), and inoculated to 96-well plates (Corning), with 100 μl per well, and incubated overnight at 37° C., 5% CO2. The next day, the test compound was added to the cultured cells (2 wells in parallel). The final concentration of the solvent was less than 1/1,000. The cells were further cultured for 3 to 5 days and assayed by MTT.
(§4) The compound was stored at a concentration of 10 mM at −20° C. and diluted to 2- or 10-fold series prior to use. BGJ398 and AC220 were synthesized according to the methods of WO2006420A1 and US2007232604A1, respectively.
(§5) The adherent cells were taken out from the cell culture medium, and immediately added to a freshly prepared complete medium containing 10% CCK8 (5% FBS), 100 ul per hole. The suspended cells were directly added to a CCK8 reagent until reaching a final concentration of 10% and cultured for 1 to 4 hours.
(§6) T=optical density of drug-treated cell wells−optical density of blank control wells; T0=optical density of cell wells before drug treatment−optical density of blank control wells; C=optical density of solvent control wells−optical density of blank control wells. […] The experiments were repeated 1 to 3 times and a statistical analysis of data was conducted.

For assay [2], the system named is Kasumi-1 (KIT N822K). Put plainly: In vitro growth inhibition of Kasumi-1 tumor cells (MTT/CCK8). As to conditions: Homo sapiens, Kasumi 1; in vitro growth inhibition (or induction of apoptosis), cells cultured 3 to 5 days, MTT (CCK8); read-out: IC50 Kasumi-1 (KIT N822K).
Text: as §1, §2, §3, §4, §5, §6

Assay [3] concerns MOLM-13 (FLT3-ITD). Nature of the assay: In vitro growth inhibition of MOLM-13 tumor cells (MTT/CCK8). As to conditions: Homo sapiens, MOLM-13; in vitro growth inhibition (or induction of apoptosis), cells cultured 3 to 5 days, MTT (CCK8); read-out: IC50 MOLM-13 (FLT3-ITD).
Text: as §1, §2, §3, §4, §5, §6

Assay [4] has as its system Hep3B2 (FGFR3/4+++). Put plainly: In vitro growth inhibition of Hep3B2 tumor cells (MTT/CCK8). As to conditions: Homo sapiens, Hep3B; in vitro growth inhibition (or induction of apoptosis), cells cultured 3 to 5 days, MTT (CCK8); read-out: IC50 Hep3B2 (FGFR3/4+++).
Text: as §1, §2, §3, §4, §5, §6

The test system of assay [5] is KATO III (FGFR2 amp). Put plainly: In vitro growth inhibition of KATO III tumor cells (MTT/CCK8). As to conditions: Homo sapiens, KATO III; in vitro growth inhibition (or induction of apoptosis), cells cultured 3 to 5 days, MTT (CCK8); read-out: IC50 KATO III (FGFR2 amp).
Text: as §1, §2, §3, §4, §5, §6

For assay [6], the system named is Karpas 299 (NPM-ALK). Put plainly: In vitro growth inhibition of Karpas 299 tumor cells (MTT/CCK8). As to conditions: Homo sapiens, KARPAS-299; in vitro growth inhibition (or induction of apoptosis), cells cultured 3 to 5 days, MTT (CCK8); read-out: IC50 Karpas 299 (NPM-ALK).
Text: as §1, §2, §3, §4, §5, §6

In assay [7] the test system is H1703 (PDGFRa amp). Put plainly: In vitro growth inhibition of H1703 tumor cells (MTT/CCK8). As to conditions: Homo sapiens, NCI-H1703; in vitro growth inhibition (or induction of apoptosis), cells cultured 3 to 5 days, MTT (CCK8); read-out: IC50 H1703 (PDGFRa amp).
Text: as §1, §2, §3, §4, §5, §6

The test system of assay [8] is KCL-22 (BCR-ABL). Nature of the assay: In vitro growth inhibition of KCL-22 tumor cells (MTT/CCK8). As to conditions: Homo sapiens, KCL-22; in vitro growth inhibition (or induction of apoptosis), cells cultured 3 to 5 days, MTT (CCK8); read-out: IC50 KCL-22 (BCR-ABL).
Text: as §1, §2, §3, §4, §5, §6

pIC50: −log10 of the molar value. Where only a bound is given, the exact number is not on record here.

Take `COc1cc2nccc(Oc3ccc(NC(=O)Nc4cc(C(C)(C)C)n[nH]4)c(C)c3)c2cc1C(N)=O` [Compound 34, 4-{4-[3-(5-tert-butyl-2H-pyrazol-3-yl)-ureido]-3-methyl-phenoxy}-7-methoxyquinolin-6-carboxamide]: the pIC50 is 7.24 in assay [1]; 6.87 in assay [2]; 7.84 in assay [3]; 7.02 in assay [4]; 8.79 in assay [5]; 6.19 in assay [6]. Besides, the values for the pIC50 in assay [7] and in assay [8] were 7.06 and 7.01, respectively.
With `C=CC(=O)N1CCC(NC(=O)Nc2ccc(Oc3ccnc4cc(OC)c(C(N)=O)cc34)cc2Cl)C1` (centres unmarked) [Compound 70, 4-{3-chloro-4-[3-(1-acryloylpyrrolidin-3-yl)-ureido]-phenoxy}-7-methoxyquinolin-6-carboxamide], the pIC50 in assay [1], in assay [2], in assay [3], in assay [4], in assay [5] and in assay [6] was less than 6.00 in each case. The pIC50 in assay [7] and in assay [8] was less than 6.00 each time.
For `CC(C)Oc1cc2nccc(Oc3ccc(NC(=O)Nc4cc(C(C)(C)C)n[nH]4)c(Cl)c3)c2cc1C(N)=O` [Compound 43, 4-{4-[3-(5-tert-butyl-2H-pyrazol-3-yl)-ureido]-3-chloro-phenoxy}-7-isopropoxy-quinolin-6-carboxamide], the pIC50 in assay [1] is 7.41; in assay [2], 6.83; in assay [3] it was 7.29; in assay [4], 7.19; in assay [5] it was 8.24; in assay [6], 6.25. Further, the pIC50 is 7.43 in assay [7] and 6.99 in assay [8].
On to `CNC(=O)c1cc2c(Oc3ccc(NC(=O)Nc4cc(C(C)(C)C)n[nH]4)c(Cl)c3)ccnc2cc1OC` [Compound 45, 4-{4-[3-(5-tert-butyl-2H-pyrazol-3-yl)-ureido]-3-chloro-phenoxy}-7-methoxyquinolin-6-carboxylic acid methylamide], for which the pIC50 in assay [1] was 7.78; in assay [2], 7.47; in assay [3], 8.20; in assay [4], 7.40; in assay [5] it was 8.84; in assay [6] it was 6.38. The pIC50 in assay [7] was 7.59; in assay [8], 7.66.
Regarding `COCCN1CCN(CCCOc2cc3nccc(Oc4ccc(NC(=O)Nc5cc(C(C)(C)C)n[nH]5)c(Cl)c4)c3cc2C(N)=O)CC1` [Compound 85, 4-{4-[3-(5-tert-butyl-2H-pyrazol-3-yl)-ureido]-3-chloro-phenoxy}-7-{3-[4-(2-methoxy-ethyl)-piperazin-1-yl]-propoxy}-quinolin-6-carboxamide], the pIC50 in assay [1] was 7.85; in assay [2], 8.19; in assay [3], 8.55; in assay [4] it was 7.78; in assay [5], 8.72; in assay [6], 6.58. The pIC50 was 7.85 in assay [7] and 7.48 in assay [8].
For `CNC(=O)c1cc2c(Oc3ccc(NC(=O)Nc4cc(C(C)(C)C)on4)c(Cl)c3)ccnc2cc1OC` [Compound 14, 4-{4-[3-(5-tert-butyl-isoxazol-3-yl)-ureido]-3-chloro-phenoxy}-7-methoxyquinolin-6-carboxylic acid methylamide], the pIC50 was 7.98 in assay [1]; 7.48 in assay [2]; 8.25 in assay [3]; 7.62 in assay [4]; 8.67 in assay [5]; 6.14 in assay [6]. Also, the pIC50 in assay [7] is 7.99; in assay [8] it was 8.05.
As for `C=CC(=O)Nc1cc2c(Oc3ccc(NC(=O)Nc4cc(C(C)(C)C)on4)c(Cl)c3)ccnc2cc1OC` [Compound 22, N-(4-{4-[3-(5-tert-butyl-isoxazol-3-yl)-ureido]-3-chloro-phenoxy}-7-methoxyquinolin-6-yl)-acrylamide], the pIC50 is 7.39 in assay [1]; 7.04 in assay [2]; 7.77 in assay [3]; 7.73 in assay [4]; 8.07 in assay [5]; 6.21 in assay [6]. For the same compound, the pIC50 was 7.56 in assay [7] and 7.21 in assay [8].
With `COc1cc2nccc(Nc3ccc(NC(=O)Nc4cc(C(C)(C)C)n[nH]4)cc3C)c2cc1C(N)=O` [Compound 98, 4-{4-[3-(5-tert-butyl-2H-pyrazol-3-yl)-ureido]-2-methyl-phenylamino}-7-methoxy-quinolin-6-carboxamide], the pIC50 in assay [1] is 6.36; in assay [2], less than 6.00; in assay [3], 8.22; in assay [4], 6.07; in assay [5], 6.57; in assay [6] it was less than 6.00. The figures for the pIC50 in assay [7] and in assay [8] were 6.22 and less than 6.00, respectively.
On to `CCC(=O)Nc1cc2c(Oc3ccc(NC(=O)Nc4cc(C(C)(C)C)on4)c(Cl)c3)ccnc2cc1OC` [Compound 21, N-(4-{4-[3-(5-tert-butyl-isoxazol-3-yl)-ureido]-3-chloro-phenoxy}-7-methoxyquinolin-6-yl)-propionamide], for which the pIC50 was 7.76 in assay [1]; 7.05 in assay [2]; 8.15 in assay [3]; 7.43 in assay [4]; 8.55 in assay [5]; 6.40 in assay [6]. Besides, the pIC50 is 6.80 in assay [7] and 7.57 in assay [8].
For the compound `COc1cc2nccc(Oc3ccc(NC(=O)Nc4cc(C(C)(C)C)nn4C)c(Cl)c3C)c2cc1C(N)=O` [Compound 111, 4-{4-[3-(5-tert-butyl-2-methyl-2H-pyrazol-3-yl)-ureido]-3-chloro-2-methyl-phenoxy}-7-methoxy-carboxamide], the pIC50 in assay [1] was 8.53; in assay [2], 9.43; in assay [4] it was 8.08; in assay [5], 10.00; in assay [6], 7.25; in assay [7], 8.32. Further, in assay [8], the pIC50 was 8.97.
As to `COc1cc2nccc(Oc3ccc(NC(=O)Nc4cc(C(C)(C)C)n[nH]4)c(Cl)c3C)c2cc1C(N)=O` [Compound 112, 4-{4-[3-(5-tert-butyl-2H-pyrazol-3-yl)-ureido]-3-chloro-2-methyl-phenoxy}-7-methoxy-quinolin-6-carboxamide], the pIC50 in assay [1] is 8.52; in assay [2], 9.39; in assay [4] it was 7.80; in assay [5], 9.64; in assay [6], 7.00; in assay [7], 7.76. Moreover, in assay [8], the pIC50 was 8.57.

The values above are taken from patent US10800741B2 (ANCUREALL PHARMACEUTICAL (SHANGHAI) CO., LTD., priority 2017, dated 2020).
